From US8802866B2, “Pyridinylimidazolone derivatives for the inhibition of PI3 kinases” (Merck Patent GmbH, priority 2009, dated 2014)
pIC50, pKd: −log10 of the molar value.

What was measured:
[1] = biological target: recombinant PI3Kalpha (shortened form of the catalytic subunit) (Homo sapiens, UniProt P42336); test: BIACORE PI3K binding assay (SPR); conditions: 25° C.
Method in brief: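 Contact time was 180 s and dissociation 240 s, in HEPES pH 7.40 buffer with 2% DMSO. Solvent-corrected, double-referenced data were fitted to a 1:1 model with mass transport.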

PI3Kalpha = PI3Kalpha (Homo sapiens, UniProt P42336); test: Biochemical PI3Kalpha assay (neomycin SPA, lipid phosphorylation); conditions: human recombinant GST-PI3K
Sequence of PI3Kalpha (P42336 whole entry): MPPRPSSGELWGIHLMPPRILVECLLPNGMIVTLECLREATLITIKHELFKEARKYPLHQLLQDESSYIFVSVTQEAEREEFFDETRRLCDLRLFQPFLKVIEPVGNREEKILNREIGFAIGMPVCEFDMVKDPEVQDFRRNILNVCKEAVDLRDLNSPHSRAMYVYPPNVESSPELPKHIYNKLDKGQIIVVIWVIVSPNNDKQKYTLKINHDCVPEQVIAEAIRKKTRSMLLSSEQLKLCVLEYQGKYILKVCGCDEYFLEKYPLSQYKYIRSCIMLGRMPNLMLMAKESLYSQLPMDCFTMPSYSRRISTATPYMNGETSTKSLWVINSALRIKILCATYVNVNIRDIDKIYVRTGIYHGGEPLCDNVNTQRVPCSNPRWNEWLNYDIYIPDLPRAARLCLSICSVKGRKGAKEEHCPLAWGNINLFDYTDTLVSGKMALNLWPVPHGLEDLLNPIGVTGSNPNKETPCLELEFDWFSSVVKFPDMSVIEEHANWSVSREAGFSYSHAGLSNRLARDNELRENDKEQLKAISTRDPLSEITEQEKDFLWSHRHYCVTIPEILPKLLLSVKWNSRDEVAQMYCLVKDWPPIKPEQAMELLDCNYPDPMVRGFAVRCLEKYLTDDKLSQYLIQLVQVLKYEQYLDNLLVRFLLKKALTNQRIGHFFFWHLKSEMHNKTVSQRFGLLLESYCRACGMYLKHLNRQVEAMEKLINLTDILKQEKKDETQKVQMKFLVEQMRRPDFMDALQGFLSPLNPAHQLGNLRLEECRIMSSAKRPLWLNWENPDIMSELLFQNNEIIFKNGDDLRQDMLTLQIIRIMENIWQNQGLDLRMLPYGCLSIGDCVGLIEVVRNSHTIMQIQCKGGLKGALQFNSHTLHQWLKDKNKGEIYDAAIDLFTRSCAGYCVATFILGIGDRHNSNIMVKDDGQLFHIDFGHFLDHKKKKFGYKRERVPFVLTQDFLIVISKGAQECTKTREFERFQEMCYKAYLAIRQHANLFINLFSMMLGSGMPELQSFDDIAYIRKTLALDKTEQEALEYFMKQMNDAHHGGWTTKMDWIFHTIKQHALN
Sequence of PI3Kalpha (P27986 whole entry partner): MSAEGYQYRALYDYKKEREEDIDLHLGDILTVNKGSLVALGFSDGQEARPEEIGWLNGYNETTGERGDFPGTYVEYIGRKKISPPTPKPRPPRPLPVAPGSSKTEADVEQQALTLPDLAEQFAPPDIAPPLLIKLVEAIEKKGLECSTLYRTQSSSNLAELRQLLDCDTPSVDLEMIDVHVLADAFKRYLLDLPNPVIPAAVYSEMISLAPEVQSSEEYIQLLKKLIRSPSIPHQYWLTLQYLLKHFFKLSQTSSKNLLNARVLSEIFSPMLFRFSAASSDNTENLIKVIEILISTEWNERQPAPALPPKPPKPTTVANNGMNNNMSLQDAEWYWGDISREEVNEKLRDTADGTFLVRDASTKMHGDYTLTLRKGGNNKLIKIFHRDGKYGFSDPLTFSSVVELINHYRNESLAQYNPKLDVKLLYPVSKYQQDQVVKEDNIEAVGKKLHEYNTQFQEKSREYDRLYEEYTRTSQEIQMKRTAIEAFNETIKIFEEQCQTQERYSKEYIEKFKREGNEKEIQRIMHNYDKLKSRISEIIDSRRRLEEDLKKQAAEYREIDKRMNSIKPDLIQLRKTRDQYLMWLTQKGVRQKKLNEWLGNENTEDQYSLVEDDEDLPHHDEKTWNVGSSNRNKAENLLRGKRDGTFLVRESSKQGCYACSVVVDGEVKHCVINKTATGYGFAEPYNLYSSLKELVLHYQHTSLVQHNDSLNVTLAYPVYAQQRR
Method in brief: (§1)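 Recombinant PI3K incubated with lipid substrate and radioactive ATP for 120 min at room temperature with gentle stirring, then stopped with neomycin-coated PVT-SPA beads, ATP 60 mM and EDTA 6.2 mM in PBS. After 60 min bead binding and centrifugation, radioactive Ptdlns(3)P counted by scintillation.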

DNA-PK protein complex = DNA-PK protein complex (Homo sapiens, UniProt P78527); test: Biochemical DNA-PK assay (FlashPlate)
Method in brief: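 Streptavidin-coated FlashPlate radiometric kinase assay, stopped with 200 mM EDTA, then wells washed with 0.9% NaCl and bound radioactivity counted. Blank (non-specific reaction) defined with a proprietary kinase inhibitor at 10 μM.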

mTOR = biological target: T1, mTOR (Homo sapiens, UniProt P42345); test: Biochemical mTOR assay (Millipore mTOR assay kit)
T1 construct: purchased Millipore 14-770
T1 sequence (P42345 1362-2549 limits assumed): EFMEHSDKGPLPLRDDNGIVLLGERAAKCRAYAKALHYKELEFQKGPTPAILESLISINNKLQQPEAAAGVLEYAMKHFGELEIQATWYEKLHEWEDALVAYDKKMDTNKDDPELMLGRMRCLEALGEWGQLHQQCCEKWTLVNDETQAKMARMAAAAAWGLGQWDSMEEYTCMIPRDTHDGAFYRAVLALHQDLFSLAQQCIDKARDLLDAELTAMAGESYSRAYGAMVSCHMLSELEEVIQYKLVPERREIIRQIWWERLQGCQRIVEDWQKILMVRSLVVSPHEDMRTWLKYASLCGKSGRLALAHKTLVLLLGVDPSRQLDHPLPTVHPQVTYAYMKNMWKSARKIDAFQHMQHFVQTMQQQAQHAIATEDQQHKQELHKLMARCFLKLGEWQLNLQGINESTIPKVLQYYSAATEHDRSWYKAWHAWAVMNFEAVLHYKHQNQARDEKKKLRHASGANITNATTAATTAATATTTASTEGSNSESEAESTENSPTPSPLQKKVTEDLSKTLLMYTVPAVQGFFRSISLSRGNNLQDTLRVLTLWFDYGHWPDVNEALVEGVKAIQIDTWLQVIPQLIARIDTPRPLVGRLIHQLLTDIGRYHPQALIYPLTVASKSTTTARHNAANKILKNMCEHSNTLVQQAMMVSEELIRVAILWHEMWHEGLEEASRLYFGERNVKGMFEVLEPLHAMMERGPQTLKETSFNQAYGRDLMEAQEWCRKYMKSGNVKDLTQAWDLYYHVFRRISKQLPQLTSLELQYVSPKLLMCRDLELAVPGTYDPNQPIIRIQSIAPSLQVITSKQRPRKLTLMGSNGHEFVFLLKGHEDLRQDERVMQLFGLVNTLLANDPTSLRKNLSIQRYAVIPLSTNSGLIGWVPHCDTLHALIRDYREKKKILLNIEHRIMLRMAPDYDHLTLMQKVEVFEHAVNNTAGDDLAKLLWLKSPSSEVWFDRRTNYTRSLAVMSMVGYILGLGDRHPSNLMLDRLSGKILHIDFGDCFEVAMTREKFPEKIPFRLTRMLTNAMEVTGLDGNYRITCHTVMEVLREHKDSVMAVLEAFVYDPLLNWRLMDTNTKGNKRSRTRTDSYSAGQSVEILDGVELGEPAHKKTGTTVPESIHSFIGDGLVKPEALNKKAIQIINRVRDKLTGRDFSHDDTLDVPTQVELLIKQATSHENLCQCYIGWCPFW
Protocol: The biochemical mTOR assay was carried out by the method described in the Millipore mTOR assay kit (catalogue number 14-770).

PI3Kbeta = PI3Kbeta (Homo sapiens, UniProt P42338); test: Biochemical PI3Kbeta assay (neomycin SPA, lipid phosphorylation); conditions: human recombinant GST-PI3K
Sequence of PI3Kbeta (P42338 whole entry): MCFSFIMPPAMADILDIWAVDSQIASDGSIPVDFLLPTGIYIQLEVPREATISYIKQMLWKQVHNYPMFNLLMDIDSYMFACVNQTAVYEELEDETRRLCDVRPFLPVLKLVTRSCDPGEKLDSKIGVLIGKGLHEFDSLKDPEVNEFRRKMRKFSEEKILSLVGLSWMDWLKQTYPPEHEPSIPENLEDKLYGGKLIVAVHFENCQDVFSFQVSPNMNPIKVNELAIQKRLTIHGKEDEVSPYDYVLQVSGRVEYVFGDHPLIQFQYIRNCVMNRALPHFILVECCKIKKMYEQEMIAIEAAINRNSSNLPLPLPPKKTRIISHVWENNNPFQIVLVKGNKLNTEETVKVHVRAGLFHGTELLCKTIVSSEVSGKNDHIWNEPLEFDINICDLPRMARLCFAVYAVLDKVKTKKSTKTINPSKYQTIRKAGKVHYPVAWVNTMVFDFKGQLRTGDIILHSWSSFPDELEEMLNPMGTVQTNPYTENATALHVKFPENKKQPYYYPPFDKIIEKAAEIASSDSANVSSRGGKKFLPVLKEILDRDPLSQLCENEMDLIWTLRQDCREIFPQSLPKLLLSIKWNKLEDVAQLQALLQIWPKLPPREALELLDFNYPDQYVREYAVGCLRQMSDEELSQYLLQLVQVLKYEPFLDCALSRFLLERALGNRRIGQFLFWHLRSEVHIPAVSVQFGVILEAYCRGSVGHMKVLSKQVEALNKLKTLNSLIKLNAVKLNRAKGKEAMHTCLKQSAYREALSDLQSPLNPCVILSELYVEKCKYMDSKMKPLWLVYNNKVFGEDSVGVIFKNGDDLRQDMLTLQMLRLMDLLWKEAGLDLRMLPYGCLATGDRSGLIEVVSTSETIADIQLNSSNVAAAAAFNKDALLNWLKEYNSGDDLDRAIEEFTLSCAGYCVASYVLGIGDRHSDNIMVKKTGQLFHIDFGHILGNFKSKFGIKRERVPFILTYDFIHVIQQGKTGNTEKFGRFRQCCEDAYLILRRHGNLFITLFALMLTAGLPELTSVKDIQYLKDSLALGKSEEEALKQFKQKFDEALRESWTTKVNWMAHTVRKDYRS
Sequence of PI3Kbeta (P27986 whole entry partner): as the sequence (P27986 whole entry partner) above
Method in brief: as §1

[2] = tested on: PI3K-dependent phosphorylation of PKB at Serin 473 in PC3 cells; test: Cellular PI3K assay (P-S473-PKB Luminex assay in PC3 cells); format: cell-based; conditions: Homo sapiens, PC-3, 0.5 h; PC3 cells, 30 min, serum-free, P-S473-PKB; read-out: IC50 (cell)
Method in brief: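 PC3 cells were exposed for 30 min under serum-free conditions to 7 concentrations of compound, then lysed. Lysates were captured overnight at 4°C on anti-total-PKB Luminex beads and detected with P-S473-PKB antibody plus PE-labelled secondary.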

Sequence of recombinant PI3Kalpha (shortened form of the catalytic subunit) (P42336 151-1068 limits assumed): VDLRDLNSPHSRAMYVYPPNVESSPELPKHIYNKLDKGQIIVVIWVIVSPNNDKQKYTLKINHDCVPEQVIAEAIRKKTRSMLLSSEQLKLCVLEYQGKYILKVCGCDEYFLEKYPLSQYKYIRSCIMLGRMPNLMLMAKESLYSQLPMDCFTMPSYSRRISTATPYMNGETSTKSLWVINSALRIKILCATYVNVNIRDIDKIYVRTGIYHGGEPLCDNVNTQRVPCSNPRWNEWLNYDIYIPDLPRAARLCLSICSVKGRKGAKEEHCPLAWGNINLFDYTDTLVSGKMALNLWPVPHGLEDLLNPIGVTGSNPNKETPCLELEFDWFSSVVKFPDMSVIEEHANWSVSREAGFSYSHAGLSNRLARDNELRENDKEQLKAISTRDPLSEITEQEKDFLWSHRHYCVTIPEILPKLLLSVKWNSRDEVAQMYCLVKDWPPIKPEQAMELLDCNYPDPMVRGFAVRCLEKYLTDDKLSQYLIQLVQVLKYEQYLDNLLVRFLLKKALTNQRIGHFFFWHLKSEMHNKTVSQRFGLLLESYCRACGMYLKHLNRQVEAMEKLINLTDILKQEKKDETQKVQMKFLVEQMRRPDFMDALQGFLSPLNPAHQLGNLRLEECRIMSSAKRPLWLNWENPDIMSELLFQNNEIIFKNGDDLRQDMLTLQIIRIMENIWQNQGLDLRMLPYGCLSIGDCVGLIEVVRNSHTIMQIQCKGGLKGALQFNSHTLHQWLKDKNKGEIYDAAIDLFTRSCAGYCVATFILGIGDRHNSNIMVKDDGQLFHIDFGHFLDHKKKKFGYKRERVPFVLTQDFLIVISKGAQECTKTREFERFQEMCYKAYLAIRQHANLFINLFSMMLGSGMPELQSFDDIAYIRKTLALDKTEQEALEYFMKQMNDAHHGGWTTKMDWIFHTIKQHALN

Row | pKd [1] | pIC50 (PI3Kalpha) | pIC50 (DNA-PK protein complex) | melting point [°C] | pIC50 (mTOR) | pIC50 (PI3Kbeta) | pIC50 [2] | Compound
1 | 5.00 to 7.00 | 5.00 to 7.00 | 7.00 to 10.00 | 228 | 7.00 to 10.00 | 5.00 to 7.00 | 5.00 to 7.00 | Cn1cc(-c2cc(-c3cnc4ccccc4c3)ccn2)n(-c2ccc(C(C)(C)C#N)cc2)c1=O [Example A1, 2-Methyl-2-{4-[3-methyl-2-oxo-5-(4-quinolin-3-ylpyridin-2-yl)-2,3-dihydroimidazol-1-yl]phenyl}propionitrile]
2 | 5.00 to 7.00 | 5.00 to 7.00 | 5.00 to 7.00 | 138 | – | 5.00 to 7.00 | < 5.00 | COc1cc(-c2ccnc(-c3cn(C)c(=O)n3-c3ccc(C(C)(C)C#N)cc3)c2)ccn1 [Example A6, 2-{4-[5-(2′-Methoxy-[4,4′]bipyridinyl-2-yl)-3-methyl-2-oxo-2,3-dihydroimidazol-1-yl]phenyl}-2-methylpropionitrile]
3 | 7.00 to 10.00 | 7.00 to 10.00 | 5.00 to 7.00 | 288 | – | 5.00 to 7.00 | 5.00 to 7.00 | Cc1nc2cc(-c3ccnc(-c4cn(C)c(=O)n4-c4ccc(C(C)(C)C#N)cc4)c3)cnc2[nH]1 [Example A7, 2-Methyl-2-(4-{3-methyl-5-[4-(2-methyl-3H-imidazo[4,5-b]pyridin-6-yl)pyridin-2-yl]-2-oxo-2,3-dihydroimidazol-1-yl}phenyl)propionitrile]
4 | 7.00 to 10.00 | 7.00 to 10.00 | 5.00 to 7.00 | 252 | – | 5.00 to 7.00 | 5.00 to 7.00 | Cn1cc(-c2cc(-c3ccc(N)nc3)ccn2)n(-c2ccc(C(C)(C)C#N)cc2)c1=O [Example A8, 2-{4-[5-(6-Amino-[3,4′]bipyridinyl-2′-yl)-3-methyl-2-oxo-2,3-dihydroimidazol-1-yl]phenyl}-2-methylpropionitrile]
5 | 5.00 to 7.00 | 5.00 to 7.00 | 7.00 to 10.00 | 187 | 5.00 to 7.00 | 5.00 to 7.00 | 5.00 to 7.00 | COc1ccc(-c2ccnc(-c3cn(C)c(=O)n3-c3ccc(C(C)(C)C#N)cc3)c2)cn1 [Example A9, 2-{4-[5-(6-Methoxy-[3,4′]bipyridinyl-2′-yl)-3-methyl-2-oxo-2,3-dihydroimidazol-1-yl]phenyl}-2-methylpropionitrile]
6 | 5.00 to 7.00 | 5.00 to 7.00 | 7.00 to 10.00 | 180 | – | 5.00 to 7.00 | < 5.00 | Cn1cc(-c2cc(-c3cccnc3)ccn2)n(-c2ccc(C(C)(C)C#N)cc2)c1=O [Example A10, 2-[4-(5-[3,4′]Bipyridinyl-2′-yl-3-methyl-2-oxo-2,3-dihydroimidazol-1-yl)phenyl]-2-methylpropionitrile]
7 | 7.00 to 10.00 | 7.00 to 10.00 | 7.00 to 10.00 | 248 | 5.00 to 7.00 | 5.00 to 7.00 | 7.00 to 10.00 | Cn1cc(-c2cc(-c3cnc4[nH]ccc4c3)ccn2)n(-c2ccc(C(C)(C)C#N)cc2)c1=O [Example A12, 2-Methyl-2-(4-{3-methyl-2-oxo-5-[4-(1H-pyrrolo[2,3-b]pyridin-5-yl)pyridin-2-yl]-2,3-dihydroimidazol-1-yl}phenyl)propionitrile]
8 | 5.00 to 7.00 | 5.00 to 7.00 | 5.00 to 7.00 | 277 | – | 5.00 to 7.00 | 5.00 to 7.00 | COc1ccc(-c2ccnc(-c3c[nH]c(=O)n3-c3ccc(C(C)(C)C#N)cc3)c2)cn1 [Example A15, 2-{4-[5-(6-Methoxy-[3,4′]bipyridinyl-2′-yl)-2-oxo-2,3-dihydroimidazol-1-yl]-10 phenyl}-2-methylpropionitrile]
9 | 5.00 to 7.00 | 5.00 to 7.00 | 5.00 to 7.00 | 244 to 247 | – | 5.00 to 7.00 | < 5.00 | CC(C)(CN)c1ccc(-n2c(-c3cc(-c4cnc5ccccc5c4)ccn3)c[nH]c2=O)cc1 [Example A16, 1-[4-(2-Amino-1,1-dimethylethyl)phenyl]-5-(4-quinolin-3-ylpyridin-2-yl)-1,3-dihydroimidazol-2-one]
10 | 5.00 to 7.00 | 5.00 to 7.00 | 5.00 to 7.00 | 271 | – | 5.00 to 7.00 | 5.00 to 7.00 | CC(C)(C#N)c1ccc(-n2c(-c3cc(-c4cnc5ccccc5c4)ccn3)c[nH]c2=O)cc1 [Example A17, 2-Methyl-2-{4-[2-oxo-5-(4-quinolin-3-ylpyridin-2-yl)-2,3-dihydroimidazol-1-yl]-phenyl}propionitrile]
11 | 7.00 to 10.00 | 5.00 to 7.00 | 5.00 to 7.00 | 159 | – | 5.00 to 7.00 | 7.00 to 10.00 | Cn1cc(-c2cc(-c3cnc4[nH]cc(C(F)(F)F)c4c3)ccn2)n(-c2ccc(C(C)(C)C#N)cc2)c1=O [Example A18, 2-Methyl-2-(4-{3-methyl-2-oxo-5-[4-(3-trifluoromethyl-1H-pyrrolo[2,3-b]pyridin-5-yl)pyridin-2-yl]-2,3-dihydroimidazol-1-yl}phenyl)propionitrile]
12 | 7.00 to 10.00 | 5.00 to 7.00 | 5.00 to 7.00 | 163 | – | 7.00 to 10.00 | 5.00 to 7.00 | Cn1cc(-c2cc(-c3cnc4[nH]ccc4c3)ccn2)n(-c2ccc(N3CCNCC3)c(C(F)(F)F)c2)c1=O [Example A25, 1-Methyl-3-(4-piperazin-1-yl-3-trifluoromethylphenyl)-4-[4-(1H-pyrrolo[2,3-b]-pyridin-5-yl)pyridin-2-yl]-1,3-dihydroimidazol-2-one]
13 | – | 7.00 to 10.00 | 7.00 to 10.00 | 299 | 5.00 to 7.00 | 5.00 to 7.00 | 5.00 to 7.00 | Cn1cc(-c2cc(-c3cnc4[nH]ccc4c3)ccn2)n(-c2ccc(C(C)(C)C(N)=O)cc2)c1=O [Example A34, 2-(4-{3-Methyl-2-oxo-5-[4-(1H-pyrrolo[2,3-b]pyridin-5-yl)pyridin-2-yl]-2,3-dihydroimidazol-1-yl}phenyl)isobutyramide]
14 | – | 5.00 to 7.00 | 7.00 to 10.00 | 91 | 5.00 to 7.00 | 5.00 to 7.00 | 5.00 to 7.00 | Cn1cc(-c2cc(-c3cnc4[nH]ccc4c3)ccn2)n(-c2ccc(C(C)(C)CN)cc2)c1=O [Example A35, 3-[4-(2-Amino-1,1-dimethylethyl)phenyl]-1-methyl-4-[4-(1H-pyrrolo[2,3-b]-pyridin-5-yl)pyridin-2-yl]-1,3-dihydroimidazol-2-one]
15 | 7.00 to 10.00 | 7.00 to 10.00 | 7.00 to 10.00 | 195 | – | 7.00 to 10.00 | 7.00 to 10.00 | Cn1cc(-c2cc(-c3cnc(N)c(C(F)(F)F)c3)ccn2)n(-c2ccc(C(C)(C)C#N)cc2)c1=O [Example A40, 2-{4-[5-(6-Amino-5-trifluoromethyl-[3,4′]bipyridinyl-2′-yl)-3-methyl-2-oxo-2,3-dihydroimidazol-1-yl]phenyl}-2-methylpropionitrile]
16 | 7.00 to 10.00 | 5.00 to 7.00 | 7.00 to 10.00 | 191 | – | 5.00 to 7.00 | 5.00 to 7.00 | CNc1ccc(-c2ccnc(-c3cn(C)c(=O)n3-c3ccc(C(C)(C)C#N)cc3)c2)cn1 [Example A42, 2-Methyl-2-{4-[3-methyl-5-(6-methylamino-[3,4′]bipyridinyl-2′-yl)-2-oxo-2,3-dihydroimidazol-1-yl]phenyl}propionitrile]
17 | – | 5.00 to 7.00 | 7.00 to 10.00 | 264 | 5.00 to 7.00 | 5.00 to 7.00 | 5.00 to 7.00 | Cn1cc(-c2cc(-c3cnc4[nH]ccc4c3)ccn2)n(-c2ccccc2)c1=O [Example A47, 1-Methyl-3-phenyl-4-[4-(1H-pyrrolo[2,3-b]pyridin-5-yl)pyridin-2-yl]-1,3-dihydroimidazol-2-one]
18 | 5.00 to 7.00 | 5.00 to 7.00 | 7.00 to 10.00 | 238 | – | < 5.00 | 5.00 to 7.00 | Cn1cc(-c2cc(-c3ccc4[nH]ccc4c3)ccn2)n(-c2ccc(C(C)(C)C#N)cc2)c1=O [Example A53, 2-(4-{5-[4-(1H-Indol-5-yl)pyridin-2-yl]-3-methyl-2-oxo-2,3-dihydroimidazol-1-yl}-phenyl)-2-methylpropionitrile]
19 | 5.00 to 7.00 | 5.00 to 7.00 | 5.00 to 7.00 | 223 | – | 5.00 to 7.00 | 5.00 to 7.00 | COc1cc(-n2c(-c3cc(-c4cnc5[nH]ccc5c4)ccn3)cn(C)c2=O)ccc1Cl [Example A58, 3-(4-Chloro-3-methoxyphenyl)-1-methyl-4-[4-(1H-pyrrolo[2,3-b]pyridin-5-yl)-pyridin-2-yl]-1,3-dihydroimidazol-2-one]
